{"source": "patent US20100021989A1", "about": "“COMPOSITIONS AND METHODS OF CONTROLLING AND ADMINISTERING REDOX SPECIFIC FORMS OF DRUGS, FOODS AND DIETARY SUPPLEMENTS” (priority 2008, published 2010)", "key": {"HSV-1": {"tested_on": "HSV-1", "assay": "HSV-1 inactivation: virus mixed with compound, infectivity titrated on Vero cells (reduction of virus titer)", "type": "cell-based, herpes simplex virus 1", "settings": "varying pH", "method": "(§1) Experimental—HSV-1 and 2: Herpes simplex viruses were titrated by inoculation of 10-fold dilutions (HSV-1 was inoculated into Vero cell cultures, and HSV-2 was inoculated into CV1 cultures) in 96-well microtiter tissue culture plates. A virus dilution (0.1 ml) in RPMI 1640 with 1% fetal bovine serum (MM) was inoculated into each well with three wells per dilution. The plates were kept for 2 to 5 days, depending on the virus, and examined daily for cytopathic effect. Virus titers were calculated by the method of Reed and Muench (1938).\n(§2) About 10^5 50% tissue culture infective doses (TCID50s) of virus were mixed with varying concentrations (12.5, 25, 50, 75 and 100 μM) of reduced and oxidized EGCG in MM and incubated at 37° C. for 30 min. The following samples were tested: The reduced form of EGCG (#1); the partially oxidized form of EGCG (#2); the quinone or fully oxidized form of EGCG with the addition of a copper catalyst (#3); and quinone or fully oxidized form of EGCG with the addition of a zinc catalyst (#4). In Samples #3 and #4, the addition of the copper and zinc catalysts, respectively, raised the pH to 9.0-9.5. These compounds were totally oxidized, thereby taking a quinone form. […]\n(§3) Virus mixed with MM alone was used as a control. […] The 10^−1 to 10^−5 dilutions were inoculated into monolayers of Vero or CV1 cells, and the virus titers were determined as described above. […]"}, "HSV-2": {"tested_on": "HSV-2", "assay": "HSV-2 inactivation: virus mixed with compound, infectivity titrated on CV1 cells (reduction of virus titer)", "type": "cell-based, herpes simplex virus 2", "settings": "varying pH", "method": "as §1, §2, §3"}, "HSV-1 (herpes simplex 1)": {"tested_on": "HSV-1 (herpes simplex 1)", "assay": "Antiviral drug screen of EGCG, HSV-1", "type": "cell-based"}, "HSV-2 (herpes simplex 2)": {"tested_on": "HSV-2 (herpes simplex 2)", "assay": "Antiviral drug screen of EGCG, HSV-2", "type": "cell-based"}, "[1]": {"tested_on": "multidrug-resistant strain (33591) of Staphylococcus aureus", "assay": "Antibacterial assay, pre-incubation then colony-forming units counted", "type": "cell-based", "settings": "for Killing of bacteria (cfu): 0.08% EGCG", "method": "Antibacterial activity: EGCG was tested as an antibacterial agent against a multidrug-resistant strain (33591) of Staphylococcus aureus. After pre-incubating the cells with various concentrations of EGCG at pH 6, 7.5, and 8.5, cells were plated and colony-forming units (cfu) were counted as a measure of efficacy (FIG. 12)."}, "[2]": {"type": "physicochemical", "from_the_text": "UV-Visible Absorption Spectra vs. pH: EGCG solutions undergo an immediate spectral absorption shift as the pH increases from acidic to alkaline, with a change noted at pH 7 when a peak at 320 nm appears and the dominant phenol peak at 272 nm begins to decrease (FIG. 3A). The 320 nm peak likely represents the absorbance of the quinone form of EGCG. […] However, if the alkaline solution is re-acidified within minutes, the reaction is reversible. […] EPR vs. pH study of EGCG: The EPR and UV-visible spectra of EGCG, stabilized with 0.2 M MgCl2, were measured as a function of pH (i.e., 6.03, 6.54, 7.03, 7.57, 8.09, 8.56, 9.10, 9.56). A corresponding increase in a peak at ˜314 nm and a g=2 EPR spectrum occurred with increasing pH. […] This is in agreement with the known stabilizing effect on semiquinone free radicals by divalent cations like Mg^+2. […] The multiple peaks and valleys in FIGS. 5a and 5b are the fine structure detail of a high concentration radical solution. EPR detects unpaired spinning electrons due to the absorption of microwaves in an applied magnetic field. The peak splitting is due to interaction of the lone electron's spin magnetic field with environmental magnetic fields. […]"}, "Bcl-xL": {"molecular_target": "Bcl-xL (Homo sapiens, UniProt Q07817)", "sequence (Q07817 whole entry)": "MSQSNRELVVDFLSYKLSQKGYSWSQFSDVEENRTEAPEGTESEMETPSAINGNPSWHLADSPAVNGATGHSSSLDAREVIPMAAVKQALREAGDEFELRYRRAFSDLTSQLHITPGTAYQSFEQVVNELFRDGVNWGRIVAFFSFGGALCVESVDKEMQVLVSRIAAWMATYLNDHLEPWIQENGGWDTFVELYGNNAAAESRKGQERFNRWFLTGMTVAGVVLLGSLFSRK", "settings": "Kitada et al., 2003; cited from earlier work"}, "[3]": {"settings": "pH 7.4; cited from earlier work"}}, "data": [{"compound": "O=C(O[C@@H]1Cc2c(O)cc(O)cc2O[C@@H]1c1cc(O)c(O)c(O)c1)c1cc(O)c(O)c(O)c1", "note": "[EGCG, (−)-Epigallocatechingallate]", "values": [{"measurement": "Effect of pH on activity against HSV-1 (FIG. 9)", "setting": "HSV-1", "value": "greater antiviral activity at the more alkaline pH's"}, {"measurement": "Effect of pH on activity against HSV-2 (FIG. 9)", "setting": "HSV-2", "value": "greater antiviral activity at the more alkaline pH's"}, {"measurement": "EC-50", "setting": "HSV-1 (herpes simplex 1); HSV-1", "value": 24.1, "unit": "µg/mL"}, {"measurement": "EC-90", "setting": "HSV-1 (herpes simplex 1); HSV-1", "value": 121, "unit": "µg/mL"}, {"measurement": "CC-50", "setting": "HSV-1 (herpes simplex 1); cytotoxicity in HSV-1 screen", "value": 857, "unit": "µg/mL"}, {"measurement": "EC-50", "setting": "HSV-2 (herpes simplex 2); HSV-2", "value": 7.6, "unit": "µg/mL"}, {"measurement": "EC-90", "setting": "HSV-2 (herpes simplex 2); HSV-2", "value": 98.6, "unit": "µg/mL"}, {"measurement": "CC-50", "setting": "HSV-2 (herpes simplex 2); cytotoxicity in HSV-2 screen", "value": 857, "unit": "µg/mL"}, {"measurement": "Killing of bacteria (cfu)", "setting": "[1]; pH 7.5", "value": "effective at killing nearly all the bacteria"}, {"measurement": "Killing of bacteria (cfu)", "setting": "[1]; pH 8.5", "value": "effective at killing nearly all the bacteria"}, {"measurement": "Bactericidal effect (cfu)", "setting": "[1]; 0.4-0.8% EGCG, pH 6, 7.5 and 8.5", "value": "strongly bactericidal"}, {"measurement": "Effectiveness (cfu)", "setting": "[1]; concentrations higher than 0.4-0.8% EGCG", "value": "less effective"}, {"measurement": "Stability of 320 nm oxidation peak", "setting": "[2]", "value": "disappears within hours"}, {"measurement": "Decay time of semiquinone EPR signal", "setting": "[2]; after basification, 0.2 M MgCl2, no electrochemical modulation", "value": 30, "unit": "min"}, {"measurement": "Ki", "setting": "Bcl-xL", "value": "nanomolar range"}, {"measurement": "Time to complete degradation", "setting": "[3]", "value": 6, "unit": "h"}]}]}
